Assays:
MDA-MB-231 cells [1] = assay: ROS assay; format: cell-based
[2] = tested on: HeLa cervical cancer cell line; assay: ROS assay; format: cell-based; conditions: 100 μM (highest concentration)
[3] = tested on: HT-29 colon cancer cell line; assay: ROS assay; format: cell-based; conditions: HT-29, 100 μM (highest concentration)
MDA-MB-231 cells [4] = tested on: MDA-MB-231 cells

| Compound | ROS inducing effect (MDA-MB-231 cells [1]; MDA-MB-231 breast cancer cells) | difference in concentration to exhibit the same ROS effect in the other two cancer cell lines (MDA-MB-231 cells [1]; MDA-MB-231 vs HeLa and HT-29) | ROS inducing effect [2] | ROS inducing effect [3] | ROS (reactive oxygen species fold increase) (MDA-MB-231 cells [1]; MDA-MB-231 cells, concentration not given) | EC50 (MDA-MB-231 cells [4]) |
| --- | --- | --- | --- | --- | --- | --- |
| COC[C@H]1OC(=O)c2coc3c2[C@@]1(C)C1=C(C3=O)[C@@H]2CCC(=O)[C@@]2(C)C[C@H]1OC(C)=O [wortmannin] | potent ROS inducing agent | 1000 x | Strong ROS inducing effect | Strong ROS inducing effect | – | – |
| acetylwortmannolone [Compound 1] | – | – | – | – | 1.58 fold increase | 8.93 µM |
